In patent US9624214B2, “Amino-substituted imidazo[1,2-a]pyridinecarboxamides and their use” (BAYER PHARMA AKTIENGESELLSCHAFT, priority 2012, dated 2017):
Where a name gives a salt, the structure may show the parent alone.

Biological target: T1, recombinant guanylate cyclase reporter cell line (Rattus norvegicus, UniProt P19686+P20595)
T1 construct: expressed in transfected cells
T1 sequence (P20595 1-619): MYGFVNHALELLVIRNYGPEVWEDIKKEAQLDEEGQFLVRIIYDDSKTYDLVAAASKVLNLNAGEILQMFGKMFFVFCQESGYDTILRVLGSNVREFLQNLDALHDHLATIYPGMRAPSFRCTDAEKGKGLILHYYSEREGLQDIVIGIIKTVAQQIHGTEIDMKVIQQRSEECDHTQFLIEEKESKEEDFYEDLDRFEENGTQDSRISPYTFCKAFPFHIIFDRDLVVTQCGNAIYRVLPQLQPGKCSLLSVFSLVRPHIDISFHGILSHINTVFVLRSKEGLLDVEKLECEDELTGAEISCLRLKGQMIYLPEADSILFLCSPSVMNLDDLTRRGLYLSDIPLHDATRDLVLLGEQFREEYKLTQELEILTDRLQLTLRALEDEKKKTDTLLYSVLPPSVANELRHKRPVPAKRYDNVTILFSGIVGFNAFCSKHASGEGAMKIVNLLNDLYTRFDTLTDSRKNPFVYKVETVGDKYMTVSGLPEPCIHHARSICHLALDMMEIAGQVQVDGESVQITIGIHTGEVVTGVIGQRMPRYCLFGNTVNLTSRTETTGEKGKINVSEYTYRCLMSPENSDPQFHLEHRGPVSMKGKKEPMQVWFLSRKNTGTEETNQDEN
T1 sequence (P19686 1-690): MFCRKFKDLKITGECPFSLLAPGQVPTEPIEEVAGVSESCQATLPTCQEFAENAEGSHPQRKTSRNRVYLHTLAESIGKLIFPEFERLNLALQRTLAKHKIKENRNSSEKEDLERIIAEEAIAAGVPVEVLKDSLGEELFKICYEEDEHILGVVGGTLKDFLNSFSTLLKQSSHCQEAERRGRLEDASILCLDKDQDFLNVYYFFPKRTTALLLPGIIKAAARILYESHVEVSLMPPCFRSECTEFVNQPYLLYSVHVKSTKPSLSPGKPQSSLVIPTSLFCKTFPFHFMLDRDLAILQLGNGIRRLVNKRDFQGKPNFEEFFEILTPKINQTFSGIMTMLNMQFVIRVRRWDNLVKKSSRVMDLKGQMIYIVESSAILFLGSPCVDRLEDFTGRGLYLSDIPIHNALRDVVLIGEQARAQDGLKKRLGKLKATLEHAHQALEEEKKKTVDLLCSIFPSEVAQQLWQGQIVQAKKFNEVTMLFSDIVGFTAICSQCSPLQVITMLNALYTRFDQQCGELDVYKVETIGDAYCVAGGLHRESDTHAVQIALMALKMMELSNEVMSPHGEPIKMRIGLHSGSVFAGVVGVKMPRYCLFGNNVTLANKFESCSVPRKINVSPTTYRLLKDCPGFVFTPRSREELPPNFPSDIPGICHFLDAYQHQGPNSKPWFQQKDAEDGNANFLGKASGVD
Assay: B-2. Action on recombinant guanylate cyclase reporter cell line
Format: cell-based
Details: MEC = minimal effective concentration; in some cases mean values from individual determinations
Outline: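 Whole-cell reporter assay with recombinant guanylate cyclase; endpoint = minimal effective concentration.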

Structure (SMILES)	MEC [µM]
Cc1cc(OCc2c(F)cccc2F)c2nc(C)c(C(=O)NC3CCC3N)n2c1 (single isomer, unassigned; enantiomer a) [Example 328, ent-N-(2-aminocyclobutyl)-8-[(2,6-difluorobenzyl)oxy]-2,6-dimethylimidazo[1,2-a]pyridine-3-carboxamide (Enantiomer A)]	3.00
CCC(C)(N)CNC(=O)c1c(C)nc2c(OCc3c(F)cccc3F)cc(C)cn12.Cl (single isomer, unassigned; enantiomer a) [Example 357, ent-N-(2-amino-2-methylbutyl)-8-[(2,6-difluorobenzyl)oxy]-2,6-dimethylimidazo[1,2-a]pyridine-3-carboxamide Hydrochloride (Enantiomer A)]	0.03
Cc1nc2c(OCc3c(F)cccc3F)cccn2c1C(=O)NC(CN)CCCC(F)(F)F (single isomer, unassigned; enantiomer b) [Example 6, ent-N-(1-Amino-6,6,6-trifluorohexan-2-yl)-8-[(2,6-difluorobenzyl)oxy]-2-methylimidazo[1,2-a]-pyridine-3-carboxamide (Enantiomer B)]	0.23
Cc1nc2c(OCc3c(F)cccc3F)cccn2c1C(=O)NC(CN)c1ccc(F)cc1 (single isomer, unassigned; enantiomer b) [Example 10, ent-N-[2-Amino-1-(4-fluorophenyl)ethyl]-8-[(2,6-difluorobenzyl)oxy]-2-methylimidazo[1,2-a]-pyridine-3-carboxamide (Enantiomer B)]	0.30
Cc1nc2c(OCc3c(F)cccc3F)cccn2c1C(=O)NC(CN)c1ccc(Cl)cc1 (single isomer, unassigned; enantiomer b) [Example 15, ent-N-[2-Amino-1-(4-chlorophenyl)ethyl]-8-[(2,6-difluorobenzyl)oxy]-2-methylimidazo[1,2-a]-pyridine-3-carboxamide (Enantiomer B)]	0.53
Cc1nc2c(OCc3c(F)cccc3F)cccn2c1C(=O)NC(C)CN (single isomer, unassigned; enantiomer b) [Example 20, ent-N-(1-Aminopropan-2-yl)-8-[(2,6-difluorobenzyl)oxy]-2-methylimidazo[1,2-a]pyridine-3-carboxamide (Enantiomer B)]	1.00
Cc1nc2c(OCc3c(F)cccc3F)cc(Cl)cn2c1C(=O)NCC(C)N (single isomer, unassigned; enantiomer b) [Example 30, ent-N-(2-Aminopropyl)-6-chloro-8-[(2,6-difluorobenzyl)oxy]-2-methylimidazo[1,2-a]pyridine-3-carboxamide (Enantiomer B)]	0.30
COCC(N)CNC(=O)c1c(C)nc2c(OCc3c(F)cccc3F)cccn12 (single isomer, unassigned; enantiomer b) [Example 248, ent-N-(2-Amino-3-methoxypropyl)-8-[(2,6-difluorobenzyl)oxy]-2-methylimidazo[1,2-a]pyridine-3-carboxamide (Enantiomer B)]	1.00
Cc1cc(OC(C)c2c(F)cccc2F)c2nc(C)c(C(=O)NCC(C)(C)N)n2c1 (single isomer, unassigned; enantiomer b) [Example 256, ent-N-(2-Amino-2-methylpropyl)-8-[1-(2,6-difluorophenyl)ethoxy]-2,6-dimethylimidazo[1,2-a]-pyridine-3-carboxamide (Enantiomer B)]	3.00
Cc1nc2c(OCc3c(F)cccc3F)cccn2c1C(=O)NCC(C)(N)CCOCc1ccccc1 (single isomer, unassigned; enantiomer b) [Example 267, ent-N-[2-Amino-4-(benzyloxy)-2-methylbutyl]-8-[(2,6-difluorobenzyl)oxy]-2-methylimidazo[1,2-a]pyridine-3-carboxamide (Enantiomer B)]	0.10

Next, values leading:

MEC [µM]	Structure (SMILES)
1.0	Cc1nc2c(OCc3c(F)cccc3F)cc(C(F)F)cn2c1C(=O)NCC(C)(N)CF (single isomer, unassigned; enantiomer a) [Example 291, ent-N-(2-amino-3-fluoro-2-methylpropyl)-8-[(2,6-difluorobenzyl)oxy]-6-(difluoromethyl)-2-methylimidazo[1,2-a]pyridine-3-carboxamide (Enantiomer A)]
0.10	Cc1cc(OCc2c(F)cccc2F)c2nc(C)c(C(=O)NCC(C)(N)Cc3ccccn3)n2c1 (single isomer, unassigned; enantiomer a) [Example 298, ent-N-[2-amino-2-methyl-3-(pyridin-2-yl)propyl]-8-[(2,6-difluorobenzyl)oxy]-2,6-dimethyl-imidazo[1,2-a]pyridine-3-carboxamide (Enantiomer A)]
0.10	CCC(C)(N)CNC(=O)c1c(C)nc2c(OCc3c(F)ccc(F)c3F)cc(C)cn12 (single isomer, unassigned; enantiomer a) [Example 300, ent-N-(2-amino-2-methylbutyl)-2,6-dimethyl-8-[(2,3,6-trifluorobenzyl)oxy]imidazo[1,2-a]pyridine-3-carboxamide (Enantiomer A) Hydrochloride]
1.00	Cc1cc(OCc2c(F)cccc2F)c2nc(C)c(C(=O)NC3CCC3(C)N)n2c1 (single isomer, unassigned; enantiomer a) [Example 332, ent-N-[2-amino-2-methylcyclobutyl]-8-[(2,6-difluorobenzyl)oxy]-2,6-dimethylimidazo[1,2-a]pyridine-3-carboxamide (Enantiomer A)]
0.30	Cc1cc(OCc2c(F)cccc2F)c2nc(C)c(C(=O)NC3(C)CCC3(C)N)n2c1 (single isomer, unassigned; enantiomer a) [Example 336, ent-N-[(2-amino-1,2-dimethylcyclobutyl]-8-[(2,6-difluorobenzyl)oxy]-2,6-dimethylimidazo[1,2-a]pyridine-3-carboxamide (Enantiomer A)]
1.00	Cc1cc(OCc2c(F)cccc2F)c2nc(C)c(C(=O)NCC(N)C#N)n2c1 (single isomer, unassigned; enantiomer a) [Example 401, ent-N-(2-amino-2-cyanoethyl)-8-[(2,6-difluorobenzyl)oxy]-2,6-dimethylimidazo[1,2-a]pyridine-3-carboxamide (Enantiomer A)]
0.10	Cc1cc(OCc2c(F)cccc2F)c2nc(C)c(C(=O)NCC(C)(N)CCC(F)(F)F)n2c1 (single isomer, unassigned; enantiomer a) [Example 408, ent-N-(2-amino-5,5,5-trifluoro-2-methylpentyl)-8-[(2,6-difluorobenzyl)oxy]-2,6-dimethylimidazo[1,2-a]pyridine-3-carboxamide (Enantiomer A)]
0.10	Cc1cc(OCc2c(F)ccc(F)c2F)c2nc(C)c(C(=O)NCC(C)(N)CCC(F)(F)F)n2c1 (single isomer, unassigned; enantiomer a) [Example 410, ent-N-(2-amino-5,5,5-trifluoro-2-methylpentyl)-2,6-dimethyl-8-[(2,3,6-trifluorobenzyl)oxy]imidazo[1,2-a]pyridine-3-carboxamide (Enantiomer A)]
0.30	Cc1nc2c(OCc3c(F)cccc3F)cccn2c1C(=O)NC(CN)CC(F)(F)F (single isomer, unassigned; enantiomer b) [Example 3, ent-N-(1-Amino-4,4,4-trifluorobutan-2-yl)-8-[(2,6-difluorobenzyl)oxy]-2-methylimidazo[1,2-a]-pyridine-3-carboxamide (Enantiomer B)]
0.55	Cc1nc2c(OCc3c(F)cccc3F)cccn2c1C(=O)NC(CN)c1ccccc1 (single isomer, unassigned; enantiomer b) [Example 18, ent-N-(2-Amino-1-phenylethyl)-8-[(2,6-difluorobenzyl)oxy]-2-methylimidazo[1,2-a]pyridine-3-carboxamide (Enantiomer B)]
0.10	Cc1cc(OCc2c(F)cccc2F)c2nc(C)c(C(=O)NCC(C)(N)C3CC3)n2c1 (single isomer, unassigned; enantiomer b) [Example 261, ent-N-(2-Amino-2-cyclopropylpropyl)-8-[(2,6-difluorobenzyl)oxy]-2,6-dimethylimidazo[1,2-a]-pyridine-3-carboxamide (Enantiomer B)]
